Experiments:
[1] = system: porcine collagen; test: Intermediate glycation product (α-dicarbonyl compounds) formation; assay type: biochemical; details: versus untreated glycated collagen control
Method: (§1) In order to evaluate the ability to prevent glycation of collagen of the Chenopodium formosanum extract, firstly, porcine collagen (60 mg/mL) and fructose (1.5 M) were respectively prepared in 0.2 M potassium phosphate buffer (pH 7.4, containing 0.06% sodium azide). For each reaction of glycation, 100 μL of porcine collagen, 100 μL of fructose solution, and 100 μL of deionized water were deposited in a 1.5 mL microfuge tube. After incubation, the reacted solutions were stored frozen at −20° C. For determination of collagen-fructose glycation, a glycation inhibitor of aminoguanidine (AG) (Sigma) was used. 100 μL of 3 mM AG solution (prepared in deionized water) was introduced in substitution of the deionized water in each of the reactions described above containing collagen and fructose. Meanwhile, different concentrations of the whole grain (un-dehulled) Chenopodium formosanum extract were also prepared and introduced to the reactions describe above. For determination of the intensity, 100 μL of each reacted solution was withdrawn to a well of a 96-well plate and subjected to intensity determination by a spectrofluorometer (FLx 800, BioTek, Winooski, Vt.) set at 360 nm of excitation and 460 nm of emission.
Along the glycation process, amadori product is transformed into intermediate-product such as α-dicarbonyl compounds. […]

[2] = system: porcine collagen; test: Early glycation product (fructosamine) formation; assay type: biochemical; details: versus untreated glycated collagen control
Method: as §1
Amadori product such as fructosamine is formed at the early stage of glycation. […]

N=C(N)NN [aminoguanidine]
reduction of relative α-dicarbonyl compounds formation [1]: practically incapable of suppressing the formation of α-dicarbonyl compounds
reduction of relative fructosamine formation [2]: about 8%
